Data from PMC3083694, “Effects of Intermediates between Vitamins K2 and K3 on Mammalian DNA Polymerase Inhibition and Anti-Inflammatory Activity” (International Journal of Molecular Sciences, 2011).

How the values were obtained:
[1] = test system: LPS-induced production of TNF-α in RAW264.7 cells; experiment: LPS-induced TNF-α production in mouse macrophages (ELISA); assay type: cell-based; details: Figure 4; for Inhibitory effect on LPS-stimulated TNF-α production: 10 and 50 μM tested, concentration not specified; for Suppression of LPS-stimulated production of TNF-α: then 100 ng/mL LPS 24 h
Procedure: A mouse macrophage cell line, RAW264.7, was obtained from American Type Culture Collection (ATCC) (Manassas, VA, U.S.). The cells were cultured in Eagle’s Minimum Essential Medium (MEM) supplemented with 4.5 g of glucose per liter plus 10% fetal calf serum, 5 mM L-glutamine, 50 units/mL penicillin and 50 units/mL streptomycin. The cells were cultured at 37 °C in standard medium in a humidified atmosphere of 5% CO2–95% air.
RAW264.7 cells were placed in a 12-well plate at 5 × 10^4 cells/well and incubated for 24 h. The cells were pretreated with the VK2 and VK3 intermediates (final concentrations of 10 and 50 μM) for 30 min before the addition of 100 ng/mL of LPS. After stimulation with LPS for 24 h, the cell culture medium was collected to measure the amount of TNF-α secreted. The concentration of TNF-α in the culture medium was quantified by using a commercially available enzyme-linked immunosorbent assay (ELISA) development system (Bay Bioscience Co., Ltd., Kobe, Japan) in accordance with the manufacturer’s protocol.

[2] = test system: TPA-induced edema on mouse ear; experiment: TPA-induced mouse ear inflammatory test; assay type: in vivo; details: 250 or 500 μg applied to ear 30 min before TPA (0.5 μg); edema evaluated after 7 h; Figure 3
Procedure: All animal studies were performed according to the guidelines outlined in the “Care and Use of Laboratory Animals” of Kobe University. The animals were anesthetized with pentobarbital before undergoing cervical dislocation. Female 8-week-old C57BL/6 mice that had been bred in-house with free access to food and water were used for all experiments. All of the mice were maintained under a 12-h light/dark cycle and housed at a room temperature of 25 °C.
The mouse inflammatory test was performed according to Gschwendt’s method. In brief, an acetone solution of the VK2 and VK3 intermediates (250 or 500 μg in 20 μL) or 20 μL of acetone as a vehicle control was applied to the inner part of the mouse ear. Thirty minutes after the test compound was applied, a TPA solution (0.5 μg/20 μL of acetone) was applied to the same part of the ear. To the other ear of the same mouse, methanol, followed by TPA solution, was applied as a control. After 7 h, a disk (6 mm diameter) was obtained from the ear and weighed. The inhibitory effect (IE) is presented as a ratio of the increase in weight of the ear disks: IE=[(TPA only)−(tested compound plus TPA)]/[(TPA only)−(vehicle)]×100

## CC(C)=CCC/C(C)=C/CC/C(C)=C/CC1=C(C)C(=O)c2ccccc2C1=O [MK-3]
[1]
  Inhibitory effect on LPS-stimulated TNF-α production: moderate inhibitory effect
[2]
  Anti-inflammatory activity toward TPA-induced edema on mouse ear: weak effect

## CC(C)=CCC/C(C)=C/CC/C(C)=C/CC/C(C)=C/CC1=C(C)C(=O)c2ccccc2C1=O [MK-4, menaquinone 4, reference compound]
[1]
  Inhibitory effect on LPS-stimulated TNF-α production: moderate inhibitory effect
[2]
  Anti-inflammatory activity toward TPA-induced edema on mouse ear: weak effect

## CC(C)=CCC/C(C)=C/CC1=C(C)C(=O)c2ccccc2C1=O [MK-2]
[1]; 10 μM compound 30 min
  Suppression of LPS-stimulated production of TNF-α: significantly suppressed
[1]; 50 μM compound 30 min
  Suppression of LPS-stimulated production of TNF-α: significantly suppressed
[2]
  Anti-inflammatory activity toward TPA-induced edema on mouse ear: suppressed inflammation

## CC(C)=CCC1=C(C)C(=O)c2ccccc2C1=O [MK-1]
[1]; 50 μM compound 30 min
  Suppression of LPS-stimulated production of TNF-α: significantly suppressed
[2]
  Anti-inflammatory activity toward TPA-induced edema on mouse ear: suppressed inflammation
